Earlier results on two compounds are cited in US9872927B2, “Dye solution” (FLUORON GMBH, priority 2008, dated 2018).

Series [1] concerns eukaryotes.
The conditions of series [2]: dye of U.S. Pat. No. 7,014,991.

On to `[2H]O[2H]` [Heavy water, D2O], for which, in series [1], the “concentration in water tolerated by eukaryotes” value is ≤ 20% and the “irritation in the area of application” value is recorded as “does not lead to any irritation”.

Regarding `O=C1/C(=C2\Nc3ccc(S(=O)(=O)O)cc3C2=O)Nc2ccc(S(=O)(=O)O)cc21` [indigotindisulfonate], in series [2], the cytotoxicity result is reported as “cytotoxic”.
